Source: patent publication US9902722B2, “Biaryl kinase inhibitors” (BRISTOL-MYERS SQUIBB COMPANY, priority 2014, dated 2018)

These molecules were tested against GST-Xa-hAAK1 (Homo sapiens (Human), UniProt Q2M2I8) (assay: AAK1 Kinase Assay). Conditions: bacterially expressed GST-Xa-hAAK1 3.5 nM; ATP 22 μM; peptide substrate 1.5 μM; 3 hours at room temperature; Caliper LabChip 3000.
Type: biochemical
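Further: each compound tested across an eleven-point concentration series, with IC50 obtained through non-linear regression fitting.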
Procedure: The assays were performed in U-bottom 384-well plates. […] The reactions were initiated by the combination of bacterially expressed, GST-Xa-hAAK1 with substrates and test compounds. The reactions were incubated at room temperature for 3 hours and terminated by adding 60 μl of 35 mM EDTA buffer to each sample. […] Compounds were dissolved at 10 mM in dimethylsulfoxide (DMSO) and evaluated at eleven concentrations. IC50 values were derived by non-linear regression analysis.

Sequence of GST-Xa-hAAK1 (Q2M2I8 whole entry): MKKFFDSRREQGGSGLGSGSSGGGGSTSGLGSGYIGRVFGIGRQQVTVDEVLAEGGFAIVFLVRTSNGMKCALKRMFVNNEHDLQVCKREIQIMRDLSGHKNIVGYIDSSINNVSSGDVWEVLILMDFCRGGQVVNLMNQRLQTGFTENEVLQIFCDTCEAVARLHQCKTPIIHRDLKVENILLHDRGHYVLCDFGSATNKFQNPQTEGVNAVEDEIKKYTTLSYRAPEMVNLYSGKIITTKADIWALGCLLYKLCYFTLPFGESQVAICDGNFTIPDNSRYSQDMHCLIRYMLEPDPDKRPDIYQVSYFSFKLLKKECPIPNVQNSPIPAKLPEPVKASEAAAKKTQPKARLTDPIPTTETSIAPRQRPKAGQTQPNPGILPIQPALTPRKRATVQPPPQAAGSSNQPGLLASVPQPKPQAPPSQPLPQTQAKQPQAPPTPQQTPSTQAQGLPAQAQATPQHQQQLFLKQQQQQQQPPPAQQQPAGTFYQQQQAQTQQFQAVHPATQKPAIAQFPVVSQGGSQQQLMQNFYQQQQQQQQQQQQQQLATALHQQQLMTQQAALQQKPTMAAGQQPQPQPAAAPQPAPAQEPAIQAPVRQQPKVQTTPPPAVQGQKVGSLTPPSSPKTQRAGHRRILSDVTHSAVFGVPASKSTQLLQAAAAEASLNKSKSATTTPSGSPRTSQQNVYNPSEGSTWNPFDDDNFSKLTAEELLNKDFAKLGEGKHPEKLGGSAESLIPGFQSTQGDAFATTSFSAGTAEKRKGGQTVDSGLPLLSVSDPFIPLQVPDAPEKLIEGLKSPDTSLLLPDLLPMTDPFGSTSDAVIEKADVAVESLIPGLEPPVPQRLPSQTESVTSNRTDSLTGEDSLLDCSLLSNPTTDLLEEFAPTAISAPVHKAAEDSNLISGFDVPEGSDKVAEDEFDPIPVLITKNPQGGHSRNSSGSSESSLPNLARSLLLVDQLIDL

SMILES | IC50
CC(C)C[C@](C)(N)COc1ncc(-c2ccnc3ccccc23)cc1C(F)F [Example 204, (S)-1-((3-(difluoromethyl)-5-(quinolin-4-yl)pyridin-2-yl)oxy)-2,4-dimethylpentan-2-amine] | 0.23 nM
COC(=O)Nc1cc(-c2cc(C(F)(F)F)c(OC[C@](C)(N)CC(C)C)cn2)ccn1 [Example 166, (R)-methyl (5-((2-amino-2,4-dimethylpentyl)oxy)-4-(trifluoromethyl)-[2,4′-bipyridin]-2′-yl)carbamate] | 20 nM
CC(C)C[C@](N)(CF)COc1cnc(-c2ccnc(C(F)F)c2)cc1C(F)F [Example 186, (R)-1-((2′,4-bis(difluoromethyl)-[2,4′-bipyridin]-5-yl)oxy)-2-(fluoromethyl)-4-methylpentan-2-amine] | 18 nM
CC(C)C[C@](C)(N)COc1ncc(-c2ccnc3ccccc23)cc1C(F)(F)F [Example 219, (S)-2,4-dimethyl-1-((5-(quinolin-4-yl)-3-(trifluoromethyl)pyridin-2-yl)oxy)pentan-2-amine] | 0.59 nM
CC(C)C[C@](C)(N)COc1cnc(-c2ccnc3ccccc23)cc1C(F)F [Example 121, (S)-1-((4-(difluoromethyl)-6-(quinolin-4-yl)pyridin-3-yl)oxy)-2,4-dimethylpentan-2-amine] | 0.3 nM
COC(=O)Nc1cc(-c2cnc(OC[C@@](C)(N)CC(C)C)nc2)ccn1 [Example 211, (S)-methyl (4-(2-((2-amino-2,4-dimethylpentyl)oxy)pyrimidin-5-yl)pyridin-2-yl)carbamate] | 491 nM
Cc1cc(-c2ccc(OC[C@@](C)(N)CC(C)C)c(C#N)c2)c(F)cn1 [Example 105, (S)-2-((2-amino-2,4-dimethylpentyl)oxy)-5-(5-fluoro-2-methylpyridin-4-yl)benzonitrile] | 0.72 nM
CC(C)C[C@](C)(N)COc1cnc(-c2ccnc3ccccc23)cc1Cl [Example 236, (S)-1-((4-chloro-6-(quinolin-4-yl)pyridin-3-yl)oxy)-2,4-dimethylpentan-2-amine] | 0.98 nM
CC(C)C[C@](C)(N)COc1cnc(-c2ccnc3cc(F)ccc23)cc1C(F)F [Example 131, (S)-1-((4-(difluoromethyl)-6-(7-fluoroquinolin-4-yl)pyridin-3-yl)oxy)-2,4-dimethylpentan-2-amine] | 0.82 nM
COC(=O)Nc1cc(-c2cc(C(F)F)c(OC[C@@](N)(CF)CC(C)C)cn2)ccn1 [Example 182, (R)-methyl (5-((2-amino-2-(fluoromethyl)-4-methylpentyl)oxy)-4-(difluoromethyl)-[2,4′-bipyridin]-2′-yl)carbamate] | 8.7 nM
CC(C)C[C@](C)(N)COc1ncc(-c2ccnc3ccc(F)cc23)cc1Cl [Example 191, (S)-1-((3-chloro-5-(6-fluoroquinolin-4-yl)pyridin-2-yl)oxy)-2,4-dimethylpentan-2-amine] | 0.99 nM
COC(=O)Nc1cc(-c2ccc(OC[C@@](C)(N)CC(C)C)c(C#N)c2)ccn1 [Example 22, (S)-methyl (4-(4-((2-amino-2,4-dimethylpentyl)oxy)-3-cyanophenyl)pyridin-2-yl)carbamate] | 0.65 nM
Cc1nc(-c2ccnc(N)c2F)ccc1OC[C@@](C)(N)CC(C)C [Example 153, (S)-5-((2-amino-2,4-dimethylpentyl)oxy)-3′-fluoro-6-methyl-[2,4′-bipyridin]-2′-amine] | 1.9 nM
Cc1cc(-c2cnc(OC[C@@](C)(N)CC(C)C)c(F)c2)ccn1 [Example 97, (S)-1-((5-fluoro-2′-methyl-[3,4′-bipyridin]-6-yl)oxy)-2,4-dimethylpentan-2-amine] | 142 nM
Cc1cc(-c2ccc(OC[C@@](C)(N)CC(C)C)c(C(F)(F)F)c2)c2ccccc2n1 [Example 216, (S)-2,4-dimethyl-1-(4-(2-methylquinolin-4-yl)-2-(trifluoromethyl)phenoxy)pentan-2-amine] | 25 nM
CC(C)C[C@](C)(N)COc1ccc(-c2ccnc3ccccc23)cc1C#N [Example 104, (S)-2-((2-amino-2,4-dimethylpentyl)oxy)-5-(quinolin-4-yl)benzonitrile] | 0.83 nM
COC(=O)Nc1cc(-c2ccc(OCC(C)(N)CC(C)C)c(C)c2)ccn1 (centres unmarked) [Example 30, methyl (4-(4-((2-amino-2,4-dimethylpentyl)oxy)-3-methylphenyl)pyridin-2-yl)carbamate] | 1.4 nM
CC(C)C[C@](C)(N)COc1ccc(-c2ccnc(F)c2)cc1F [Example 93, (S)-1-(2-fluoro-4-(2-fluoropyridin-4-yl)phenoxy)-2,4-dimethylpentan-2-amine] | 33 nM
Cc1cc(-c2cc(C)c(OC[C@@](C)(N)CC(C)C)c(C)n2)ccn1 [Example 212, (S)-2,4-dimethyl-1-((2′,4,6-trimethyl-[2,4′-bipyridin]-5-yl)oxy)pentan-2-amine] | 1020 nM
CC(=O)Nc1cccc(-c2ccc(OCC(C)(N)CC(C)C)c(C)c2)c1 (centres unmarked) [Example 250, N-(4′-((2-amino-2,4-dimethylpentyl)oxy)-3′-methyl-[1,1′-biphenyl]-3-yl)acetamide] | 659 nM
CC(C)C[C@](C)(N)COc1ccc(-c2ccnc(C(F)F)c2)nc1C(F)F [Example 123, (S)-1-((2′,6-bis(difluoromethyl)-[2,4′-bipyridin]-5-yl)oxy)-2,4-dimethylpentan-2-amine] | 2.2 nM

SMILES | IC50
CC(C)C[C@@](C)(N)COc1ccc(-c2ccnc(C(F)F)c2)nc1C(F)F [Example 174, (R)-1-((2′,6-bis(difluoromethyl)-[2,4′-bipyridin]-5-yl)oxy)-2,4-dimethylpentan-2-amine] | 54 nM
CC(C)C[C@](C)(N)COc1ccc(-c2ccnc(F)c2Cl)cc1C(F)(F)F [Example 39, (S)-1-(4-(3-chloro-2-fluoropyridin-4-yl)-2-(trifluoromethyl)phenoxy)-2,4-dimethylpentan-2-amine] | 3.2 nM
CC(=O)Nc1cc(-c2cc(F)c(OC[C@@H](N)CC(C)C)c(Cl)c2)ccn1 [Example 10, (S)—N-(4-(4-((2-amino-4-methylpentyl)oxy)-3-chloro-5-fluorophenyl)pyridin-2-yl)acetamide] | 10 nM
Cc1nc(-c2ccnc3ccc(F)cc23)ccc1OC[C@@](C)(N)CC(C)C [Example 138, (S)-1-((6-(6-fluoroquinolin-4-yl)-2-methylpyridin-3-yl)oxy)-2,4-dimethylpentan-2-amine] | 35 nM
COC(=O)Nc1cc(-c2cc(C)c(OC[C@@](C)(N)CC(C)C)cn2)ccn1 [Example 68, (S)-methyl (5-((2-amino-2,4-dimethylpentyl)oxy)-4-methyl-[2,4′-bipyridin]-2′-yl)carbamate] | 2.6 nM
COc1cc(-c2ccnc(NC(C)=O)c2)ccc1OC[C@@H](N)CC(C)C [Example 2, (S)—N-(4-(4-((2-amino-4-methylpentyl)oxy)-3-methoxyphenyl)pyridin-2-yl)acetamide] | 3 nM
Cc1cc(-c2ccc(OC[C@@](C)(N)CC(C)C)c(C)c2)ccn1 [Example 90, (S)-2,4-dimethyl-1-(2-methyl-4-(2-methylpyridin-4-yl)phenoxy)pentan-2-amine] | 2.6 nM
CC(C)C[C@](C)(N)COc1ccc(-c2ccnc3cc(F)cc(F)c23)nc1C(F)F [Example 129] | 1.4 nM
CC(=O)Nc1cc(-c2ccc(OC[C@@H](N)CC(C)C)c(C)c2)ccn1 [Example 7, (S)—N-(4-(4-((2-amino-4-methylpentyl)oxy)-3-methylphenyl)pyridin-2-yl)acetamide] | 0.42 nM
CC(=O)Nc1cc(-c2ccc(OC[C@@](C)(N)CC(C)C)c(C(F)(F)F)c2)c(CO)cn1 [Example 34, (S)—N-(4-(4-((2-amino-2,4-dimethylpentyl)oxy)-3-(trifluoromethyl)phenyl)-5-(hydroxymethyl)pyridin-2-yl)acetamide] | 15 nM
COC(=O)Nc1cc(-c2ccc(OC[C@@](C)(N)CC(C)C)c(C(F)(F)F)c2)ccn1 [Example 20, (S)-methyl (4-(4-((2-amino-2,4-dimethylpentyl)oxy)-3-(trifluoromethyl)phenyl)pyridin-2-yl)carbamate] | 0.34 nM
COC(=O)Nc1cc(-c2cc(C)c(OC[C@@](C)(N)CC(C)C)c(C)n2)ccn1 [Example 213, (S)-methyl (5-((2-amino-2,4-dimethylpentyl)oxy)-4,6-dimethyl-[2,4′-bipyridin]-2′-yl)carbamate] | 22 nM
COC(=O)Nc1cc(-c2ccc(OC[C@@](C)(N)CC(C)C)c(Cl)n2)ccn1 [Example 66, (S)-methyl (5-((2-amino-2,4-dimethylpentyl)oxy)-6-chloro-[2,4′-bipyridin]-2′-yl)carbamate] | 0.65 nM
CC(C)C[C@](C)(N)COc1ccc(-c2ccnc3cccnc23)cc1C#N [Example 87, (S)-2-((2-amino-2,4-dimethylpentyl)oxy)-5-(1,5-naphthyridin-4-yl)benzonitrile] | 0.87 nM
CC(C)C[C@](C)(N)COc1ncc(-c2ccnc3cc(F)cc(F)c23)cc1C(F)(F)F [Example 218, (S)-1-((5-(5,7-difluoroquinolin-4-yl)-3-(trifluoromethyl)pyridin-2-yl)oxy)-2,4-dimethylpentan-2-amine] | 1 nM
CC(=O)Nc1cccc(-c2ccc(OC[C@](C)(N)CC(C)C)c(C)c2)c1 [Example 251] | 1100 nM
CC(C)C[C@](C)(N)COc1ncc(-c2ccnc3ccncc23)cc1C#N [Example 80, (S)-2-((2-amino-2,4-dimethylpentyl)oxy)-5-(1,6-naphthyridin-4-yl)nicotinonitrile] | 19 nM
COC(=O)Nc1cc(-c2cc(OC)c(OC[C@@](C)(N)CC(C)C)cn2)ccn1 [Example 206, (S)-methyl (5-((2-amino-2,4-dimethylpentyl)oxy)-4-methoxy-[2,4′-bipyridin]-2′-yl)carbamate] | 4.3 nM
Cc1cc(-c2ccnc3cc(F)ccc23)ncc1OC[C@@](C)(N)CC(C)C [Example 232, (S)-1-((6-(7-fluoroquinolin-4-yl)-4-methylpyridin-3-yl)oxy)-2,4-dimethylpentan-2-amine] | 0.41 nM
CC(C)C[C@](C)(N)COc1ccc(-c2ccnc3ccccc23)cc1C1CC1 [Example 74, (S)-1-(2-cyclopropyl-4-(quinolin-4-yl)phenoxy)-2,4-dimethylpentan-2-amine] | 0.07 nM
